Test results as given in ChEMBL document CHEMBL1131704, “trans-2,6-,3,6- and 4,6-diaza-5,6,6a,7,8,12b-hexahydro-benzo[c]phenanthrene-10,11- diols as dopamine agonists” (Bioorg Med Chem Lett, 1999).
pEC50, pKi: −log10 of the molar value.

Experiments:
D(1A) dopamine receptor [1] = molecular target: T1, D(1A) dopamine receptor (Homo sapiens, UniProt P21728); assay: Intrinsic activity relative against Dopamine receptor D1.; format: functional
[2] = molecular target: Dopamine D1 and D2 receptor (Homo sapiens) (UniProt P14416+P21728); assay: Ratio of Ki for human dopamine-2(D-2) and dopamine-1(D-1) receptors; format: protein assay
Dopamine D1 and D2 receptor (Homo sapiens), sequence (P14416 whole entry, looked up): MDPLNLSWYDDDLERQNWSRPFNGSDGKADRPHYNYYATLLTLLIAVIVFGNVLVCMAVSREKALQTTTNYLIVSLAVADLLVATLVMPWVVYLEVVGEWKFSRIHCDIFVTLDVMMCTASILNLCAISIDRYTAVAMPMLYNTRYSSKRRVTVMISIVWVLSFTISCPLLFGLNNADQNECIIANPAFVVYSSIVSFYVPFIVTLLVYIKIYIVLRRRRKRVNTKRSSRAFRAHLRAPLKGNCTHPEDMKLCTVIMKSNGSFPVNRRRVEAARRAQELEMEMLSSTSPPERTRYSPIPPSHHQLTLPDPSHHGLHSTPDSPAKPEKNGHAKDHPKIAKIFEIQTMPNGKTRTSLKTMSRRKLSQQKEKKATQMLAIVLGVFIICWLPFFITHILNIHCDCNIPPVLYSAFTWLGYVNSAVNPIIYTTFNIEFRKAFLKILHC
Dopamine D1 and D2 receptor (Homo sapiens), sequence (P21728 whole entry, looked up): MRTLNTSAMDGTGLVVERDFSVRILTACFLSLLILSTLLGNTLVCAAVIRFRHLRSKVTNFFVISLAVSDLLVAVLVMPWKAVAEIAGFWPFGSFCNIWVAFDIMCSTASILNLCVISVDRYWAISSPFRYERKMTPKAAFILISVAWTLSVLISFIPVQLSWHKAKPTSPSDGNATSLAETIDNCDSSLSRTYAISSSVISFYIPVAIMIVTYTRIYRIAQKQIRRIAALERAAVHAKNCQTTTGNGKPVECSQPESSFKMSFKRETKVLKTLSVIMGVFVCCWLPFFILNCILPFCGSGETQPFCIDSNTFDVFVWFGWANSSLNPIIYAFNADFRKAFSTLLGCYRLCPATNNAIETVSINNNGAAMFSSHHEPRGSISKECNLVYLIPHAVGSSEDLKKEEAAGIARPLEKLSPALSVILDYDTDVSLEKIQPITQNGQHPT

D(1A) dopamine receptor [3] = molecular target: T1, D(1A) dopamine receptor; assay: Potency in adenylate cyclase functional assay against Dopamine receptor D1
D(2) dopamine receptor = D(2) dopamine receptor (Homo sapiens, UniProt P14416); assay: Binding affinity to human Dopamine receptor D2 by using radioligand [3H]spiperone in LTK cells; format: cell-based
D(2) dopamine receptor, sequence (P14416 whole entry): as the sequence (P14416 whole entry, looked up) above

D(1A) dopamine receptor [4] = molecular target: T1, D(1A) dopamine receptor; assay: Binding affinity to Dopamine receptor D1 by using radioligand [125I]SCH-23982 in HEK cells; format: cell-based, HEK293

T1 sequence (P21728 whole entry): as the sequence (P21728 whole entry, looked up) above

SMILES | Intrinsic activity (D(1A) dopamine receptor [1]) [%] | Ratio [2] | pEC50 (D(1A) dopamine receptor [3]) | pKi (D(2) dopamine receptor) | pKi (D(1A) dopamine receptor [4])
Oc1cc2c(cc1O)[C@H]1c3ccccc3CN[C@@H]1CC2 | 121 |  |  |  | 
CCCc1cc2c(s1)CN[C@@H]1CCc3cc(O)c(O)cc3[C@@H]21 | 125 | 14 |  |  | 
Oc1cc2c(cc1O)[C@H]1c3ccc(F)nc3CN[C@@H]1CC2 | 141 | 12 | 7.74 | 5.66 | 6.74
CCCCc1cnc2c(c1)[C@@H]1c3cc(O)c(O)cc3CC[C@H]1NC2 | 118 | 2 | 6.74 | 5.72 | 6.05
Oc1cc2c(cc1O)[C@H]1c3cccnc3CN[C@@H]1CC2 | 125 | 38 | 8.17 | 5.60 | 7.19
Cc1ccc2c(n1)CN[C@@H]1CCc3cc(O)c(O)cc3[C@@H]21 | 121 | 10 | 7.64 | 5.85 | 6.85
Oc1cc2c(cc1O)[C@H]1c3cc4c(nc3CN[C@@H]1CC2)CCCC4 | 136 | 6 | 7.20 | 5.44 | 6.25
Cc1cncc2c1CN[C@@H]1CCc3cc(O)c(O)cc3[C@@H]21 | 75 | 0.36 | 6.64 | 6.40 | 5.96
Cc1cnc2c(c1)[C@@H]1c3cc(O)c(O)cc3CC[C@H]1NC2 | 156 | 50 | 6.96 | 4.92 | 6.62
Oc1cc2c(cc1O)[C@H]1c3cncc(F)c3CN[C@@H]1CC2 | 126 | 2 | 6.10 | 6.05 | 6.41
CCCc1ccc2c(n1)CN[C@@H]1CCc3cc(O)c(O)cc3[C@@H]21 | 116 | 10 | 8.07 | 6.35 | 7.35
Cc1cc2c(nc1C)CN[C@@H]1CCc3cc(O)c(O)cc3[C@@H]21 | 134 | 33 | 6.92 | 5.04 | 6.55
Oc1cc2c(cc1O)[C@H]1c3cnccc3CN[C@@H]1CC2 | 81 | 1 | 6.49 | 5.89 | 5.96
Oc1cc2c(cc1O)[C@H]1c3ccncc3CN[C@@H]1CC2 | 131 | 31 | 7.42 | 5.36 | 6.85
COc1ccc2c(n1)CN[C@@H]1CCc3cc(O)c(O)cc3[C@@H]21 | 114 | 11 | 8.06 | 6.28 | 7.31
